Measurements published in ChEMBL document CHEMBL1156251, “Structure--activity relationships of polymyxin antibiotics” (J Med Chem, 2010).
≈ marks a conversion by molar mass, not a printed value. Where a SMILES comes first, the peptide text is derived from it. Bridges are numbered along the chain shown (N, C = ends). [ ]: non-standard residue; d: D form. The star is where a group is joined. Octanoyl = CCCCCCCC(=O)*; Dab = NCC[C@H](N)C(=O)O

How the values were obtained:
Escherichia coli = test: Antimicrobial activity against Escherichia coli; assay type: functional
Salmonella enterica = test: Antimicrobial activity against Salmonella enterica; assay type: functional
Pseudomonas aeruginosa = test: Antimicrobial activity against Pseudomonas aeruginosa; assay type: functional, organism-based

| SMILES | MIC (Escherichia coli) | MIC (Salmonella enterica) | MIC (Pseudomonas aeruginosa) | IC50 (Pseudomonas aeruginosa) |
| --- | --- | --- | --- | --- |
| CCCC1CCC(C(=O)N[C@@H](CCN)C(=O)N[C@H](C(=O)N[C@@H](CCN)C(=O)N[C@H]2CCNC(=O)[C@H]([C@@H](C)O)NC(=O)[C@H](CCN)NC(=O)[C@H](CCN)NC(=O)[C@H](CC(C)C)NC(=O)[C@@H](CC(C)C)NC(=O)[C@H](CCN)NC2=O)[C@@H](C)O)CC1 (stereo partly drawn) | 8 µM (≈ 9.45 µg/mL) | 8 µM (≈ 9.45 µg/mL) | 2 µM (≈ 2.36 µg/mL) | – |
| CCCCCCCC(=O)N[C@@H](CCNS(=O)(=O)c1cccc2c(N(C)C)cccc12)C(=O)N[C@H](C(=O)N[C@@H](CCN)C(=O)N[C@H]1CCNC(=O)[C@H]([C@@H](C)O)NC(=O)[C@H](CCN)NC(=O)[C@H](CCN)NC(=O)[C@H](CC(C)C)NC(=O)[C@@H](Cc2ccccc2)NC(=O)[C@H](CCN)NC1=O)[C@@H](C)O | 1 µM (≈ 1.42 µg/mL) | 1 µM (≈ 1.42 µg/mL) | 1 µM (≈ 1.42 µg/mL) | – |
| CCCCCCCC(=O)N[C@@H](CCN)C(=O)N[C@H](C(=O)N[C@@H](C)C(=O)N[C@H]1CCNC(=O)[C@H]([C@@H](C)O)NC(=O)[C@H](CCN)NC(=O)[C@H](CCN)NC(=O)[C@H](CC(C)C)NC(=O)[C@@H](Cc2ccccc2)NC(=O)[C@H](CCN)NC1=O)[C@@H](C)O (Octanoyl-[Dab]TA[Dab][Dab][dF]L[Dab][Dab]T; lactam 4-C) | 1 µM (≈ 1.16 µg/mL) | 1 µM (≈ 1.16 µg/mL) | 2 µM (≈ 2.32 µg/mL) | – |
| CC(C)C[C@@H]1NC(=O)[C@@H](Cc2ccccc2)NC(=O)[C@H](CCN)NC(=O)[C@@H](NC(=O)[C@H](CCN)NC(=O)[C@@H](NC(=O)[C@H](CCN)NC(=O)c2ccc3ccccc3c2)[C@@H](C)O)CCNC(=O)[C@H]([C@@H](C)O)NC(=O)[C@H](CCN)NC(=O)[C@H](CCN)NC1=O [2-ANTHRACENE CARBOXYLIC ACID POLYMIXIN B] | 4 µM (≈ 4.87 µg/mL) | 2 µM (≈ 2.43 µg/mL) | 2 µM (≈ 2.43 µg/mL) | – |
| CCCC1CCC(C(=O)N[C@@H](CCN)C(=O)N[C@H](C(=O)N[C@@H](CCN)C(=O)N[C@H]2CCNC(=O)[C@H]([C@@H](C)O)NC(=O)[C@H](CCN)NC(=O)[C@H](CCN)NC(=O)[C@H](CC(C)C)NC(=O)[C@@H](Cc3ccccc3)NC(=O)[C@H](CCN)NC2=O)[C@@H](C)O)CC1 (stereo partly drawn) | 4 µM (≈ 4.86 µg/mL) | 4 µM (≈ 4.86 µg/mL) | 2 µM (≈ 2.43 µg/mL) | – |
| CC(C)C[C@@H]1NC(=O)[C@@H](Cc2ccccc2)NC(=O)[C@H](CCN)NC(=O)[C@@H](NC(=O)[C@H](CCN)NC(=O)[C@@H](NC(=O)[C@H](CCN)NC(=O)CCCc2cc3ccc4cccc5ccc(c2)c3c45)[C@@H](C)O)CCNC(=O)[C@H]([C@@H](C)O)NC(=O)[C@H](CCN)NC(=O)[C@H](CCN)NC1=O | 2 µM (≈ 2.67 µg/mL) | 2 µM (≈ 2.67 µg/mL) | 2 µM (≈ 2.67 µg/mL) | – |
| CC(C)C[C@@H]1NC(=O)[C@@H](CC(C)C)NC(=O)[C@H](CCN)NC(=O)[C@@H](NC(=O)[C@H](CCN)NC(=O)[C@@H](NC(=O)[C@H](CCN)NC(=O)C2CCCCCCCCCCC2)[C@@H](C)O)CCNC(=O)[C@H]([C@@H](C)O)NC(=O)[C@H](CCN)NC(=O)[C@H](CCN)NC1=O [CYCLODODECANE CARBOXYLIC ACID COLISTIN] | 4 µM (≈ 4.89 µg/mL) | 2 µM (≈ 2.45 µg/mL) | 2 µM (≈ 2.45 µg/mL) | – |
| CCCCCCCC(=O)N[C@H](C(=O)N[C@@H](CCN)C(=O)N[C@H]1CCNC(=O)[C@H]([C@@H](C)O)NC(=O)[C@H](CCN)NC(=O)[C@H](CCN)NC(=O)[C@H](CC(C)C)NC(=O)[C@@H](CC(C)C)NC(=O)[C@H](CCN)NC1=O)[C@@H](C)O [Octanoyl colistin nonapeptide] | 1 µM (≈ 1.06 µg/mL) | 4 µM (≈ 4.22 µg/mL) | 2 µM (≈ 2.11 µg/mL) | – |
| CC(C)C[C@@H]1NC(=O)[C@@H](Cc2ccccc2)NC(=O)[C@H](CCN)NC(=O)[C@@H](NC(=O)[C@H](CCN)NC(=O)[C@@H](NC(=O)[C@H](CCN)NC(=O)C2CCCCCCCCCCC2)[C@@H](C)O)CCNC(=O)[C@H]([C@@H](C)O)NC(=O)[C@H](CCN)NC(=O)[C@H](CCN)NC1=O [CYCLODEDECANE CARBOXYLIC ACID POLYMIXIN B] | 2 µM (≈ 2.52 µg/mL) | 2 µM (≈ 2.52 µg/mL) | 2 µM (≈ 2.52 µg/mL) | – |
| CC(=O)N[C@H](C(=O)N[C@@H](CCN)C(=O)N[C@H]1CCNC(=O)[C@H]([C@@H](C)O)NC(=O)[C@H](CCN)NC(=O)[C@H](CCN)NC(=O)[C@H](CC(C)C)NC(=O)[C@@H](CC(C)C)NC(=O)[C@H](CCN)NC1=O)[C@@H](C)O | 128 µM (≈ 124 µg/mL) | > 512 µM | 2 µM (≈ 1.94 µg/mL) | – |
| CC(C)C[C@@H]1NC(=O)[C@@H](CC(C)C)NC(=O)[C@H](CCN)NC(=O)[C@@H](NC(=O)[C@H](CCN)NC(=O)[C@@H](NC(=O)[C@H](CCN)NC(=O)Cc2ccc(-c3ccccc3)cc2)[C@@H](C)O)CCNC(=O)[C@H]([C@@H](C)O)NC(=O)[C@H](CCN)NC(=O)[C@H](CCN)NC1=O | 1 µM (≈ 1.22 µg/mL) | 2 µM (≈ 2.45 µg/mL) | 1 µM (≈ 1.22 µg/mL) | – |
| CC(C)C[C@@H]1NC(=O)[C@@H](CC(C)C)NC(=O)[C@H](CCN)NC(=O)[C@@H](NC(=O)[C@H](CCN)NC(=O)[C@@H](NC(=O)[C@H](CCN)NC(=O)C(c2ccccc2)C2CCCC2)[C@@H](C)O)CCNC(=O)[C@H]([C@@H](C)O)NC(=O)[C@H](CCN)NC(=O)[C@H](CCN)NC1=O (stereo partly drawn) [CYCLOPENTYLPHENYL ACETIC ACID COLISTIN] | 16 µM (≈ 19.4 µg/mL) | 16 µM (≈ 19.4 µg/mL) | 2 µM (≈ 2.43 µg/mL) | – |
| CC(C)C[C@@H]1NC(=O)[C@@H](CC(C)C)NC(=O)[C@H](CCN)NC(=O)[C@@H](NC(=O)[C@H](CCN)NC(=O)[C@@H](NC(=O)[C@H](CCN)NC(=O)CCCc2cc3ccc4cccc5ccc(c2)c3c45)[C@@H](C)O)CCNC(=O)[C@H]([C@@H](C)O)NC(=O)[C@H](CCN)NC(=O)[C@H](CCN)NC1=O | 2 µM (≈ 2.6 µg/mL) | 2 µM (≈ 2.6 µg/mL) | 1 µM (≈ 1.3 µg/mL) | – |
| CC(C)C[C@@H]1NC(=O)[C@@H](Cc2ccccc2)NC(=O)[C@H](CCN)NC(=O)[C@@H](NC(=O)[C@H](CCN)NC(=O)[C@@H](NC(=O)[C@H](CCN)NC(=O)CCCC2CCCCC2)[C@@H](C)O)CCNC(=O)[C@H]([C@@H](C)O)NC(=O)[C@H](CCN)NC(=O)[C@H](CCN)NC1=O | 0.5 µM (≈ 0.608 µg/mL) | 0.5 µM (≈ 0.608 µg/mL) | 1 µM (≈ 1.22 µg/mL) | – |
| CCC(C)CCCCC(=O)N[C@@H](CCNC=O)C(=O)N[C@H](C(=O)N[C@@H](CCNC=O)C(=O)N[C@H]1CCNC(=O)[C@H]([C@@H](C)O)NC(=O)[C@H](CCN)NC(=O)[C@H](CCN)NC(=O)[C@H](CC(C)C)NC(=O)[C@@H](Cc2ccccc2)NC(=O)[C@H](CCN)NC1=O)[C@@H](C)O (stereo partly drawn) | – | – | – | 4.2 µg/mL (≈ 3.33 µM) |
| CCCCCCCC(=O)N[C@@H](CCN)C(=O)N[C@@H](C)C(=O)N[C@@H](CCN)C(=O)N[C@H]1CCNC(=O)[C@H]([C@@H](C)O)NC(=O)[C@H](CCN)NC(=O)[C@H](CCN)NC(=O)[C@H](CC(C)C)NC(=O)[C@@H](Cc2ccccc2)NC(=O)[C@H](CCN)NC1=O (Octanoyl-[Dab]A[Dab][Dab][Dab][dF]L[Dab][Dab]T; lactam 4-C) | 8 µM (≈ 9.28 µg/mL) | 4 µM (≈ 4.64 µg/mL) | 2 µM (≈ 2.32 µg/mL) | – |
| CCC(C)CCCCC(=O)N[C@@H](CCNC=O)C(=O)N[C@H](C(=O)N[C@@H](CCNC=O)C(=O)N[C@H]1CCNC(=O)[C@H]([C@@H](C)O)NC(=O)[C@H](CCN)NC(=O)[C@H](CCNC=O)NC(=O)[C@H](CC(C)C)NC(=O)[C@@H](Cc2ccccc2)NC(=O)[C@H](CCN)NC1=O)[C@@H](C)O (stereo partly drawn) | – | – | – | 6.1 µg/mL (≈ 4.74 µM) |
| CC(=O)N[C@H](C(=O)N[C@@H](CCN)C(=O)N[C@H]1CCNC(=O)[C@H]([C@@H](C)O)NC(=O)[C@H](CCN)NC(=O)[C@H](CCN)NC(=O)[C@H](CC(C)C)NC(=O)[C@@H](Cc2ccccc2)NC(=O)[C@H](CCN)NC1=O)[C@@H](C)O | 32 µM (≈ 32.2 µg/mL) | 128 µM (≈ 129 µg/mL) | 2 µM (≈ 2.01 µg/mL) | – |
| CCCCCCCC(=O)N[C@@H](C)C(=O)N[C@H](C(=O)N[C@@H](CCN)C(=O)N[C@H]1CCNC(=O)[C@H]([C@@H](C)O)NC(=O)[C@H](CCN)NC(=O)[C@H](CCN)NC(=O)[C@H](CC(C)C)NC(=O)[C@@H](Cc2ccccc2)NC(=O)[C@H](CCN)NC1=O)[C@@H](C)O (Octanoyl-AT[Dab][Dab][Dab][dF]L[Dab][Dab]T; lactam 4-C) | 2 µM (≈ 2.32 µg/mL) | 2 µM (≈ 2.32 µg/mL) | 2 µM (≈ 2.32 µg/mL) | – |
| CC(C)C[C@@H]1NC(=O)[C@@H](Cc2ccccc2)NC(=O)[C@H](CCN)NC(=O)[C@@H](NC(=O)[C@H](CCN)NC(=O)[C@@H](NC(=O)[C@H](CCN)NC(=O)CC23CC4CC(CC(C4)C2)C3)[C@@H](C)O)CCNC(=O)[C@H]([C@@H](C)O)NC(=O)[C@H](CCN)NC(=O)[C@H](CCN)NC1=O [1-ADAMANTANEACETIC ACID POLYMIXIN B] | 1 µM (≈ 1.24 µg/mL) | 0.5 µM (≈ 0.62 µg/mL) | 1 µM (≈ 1.24 µg/mL) | – |
| CCCCCCCCCCCCCC(=O)N[C@H](C(=O)N[C@@H](CCN)C(=O)N[C@H]1CCNC(=O)[C@H]([C@@H](C)O)NC(=O)[C@H](CCN)NC(=O)[C@H](CCN)NC(=O)[C@H](CC(C)C)NC(=O)[C@@H](Cc2ccccc2)NC(=O)[C@H](CCN)NC1=O)[C@@H](C)O | 4 µM (≈ 4.69 µg/mL) | 4 µM (≈ 4.69 µg/mL) | 4 µM (≈ 4.69 µg/mL) | – |
| CC(C)C[C@@H]1NC(=O)[C@@H](CC(C)C)NC(=O)[C@H](CCN)NC(=O)[C@@H](NC(=O)[C@H](CCN)NC(=O)[C@@H](NC(=O)[C@H](CCN)NC(=O)CC23CC4CC(CC(C4)C2)C3)[C@@H](C)O)CCNC(=O)[C@H]([C@@H](C)O)NC(=O)[C@H](CCN)NC(=O)[C@H](CCN)NC1=O | 2 µM (≈ 2.41 µg/mL) | 1 µM (≈ 1.21 µg/mL) | 1 µM (≈ 1.21 µg/mL) | – |
| CCC(C)CCCCC(=O)N[C@@H](CCNC(=O)n1ccc2ccccc21)C(=O)N[C@@H](C(=O)N[C@@H](CCNC(=O)n1ccc2ccccc21)C(=O)N[C@H]1CCNC(=O)[C@@H]([C@@H](C)O)NC(=O)[C@H](CCNC(=O)n2ccc3ccccc32)NC(=O)[C@H](CCNC(=O)n2ccc3ccccc32)NC(=O)[C@H](CC(C)C)NC(=O)[C@@H](Cc2ccccc2)NC(=O)[C@H](CCN)NC1=O)[C@@H](C)O (stereo partly drawn) [TETRA INDOLE ALDEHYDE POLYMYXIN B] | – | – | – | 10.2 µg/mL (≈ 5.74 µM) |
